According to patent publication US20100016440A1, “ALPHA-AMINOAMIDE DERIVATIVES USEFUL AS ANTI-INFLAMMATORY AGENTS” (NEWRON PHARMACEUTICALS S.P.A., priority 2003, published 2010):

How the values were obtained:
[1] = tested on: paw edema induced by carrageenan; assay: Paw edema carrageenan-induced inflammation; assay type: in vivo, rat; conditions: for volume of paw edema (mean Δml ± s.e. vs basal paw volume): 60' after carrageenan, po 1 h before carrageenan, male Wistar rats; for volume of paw edema (mean Δml ± s.e. vs basal paw volume) / reduction of edema vs. the control vehicle (inhibition): Compound A 30 mg/kg, indomethacin 5 mg/kg; for reduction of edema vs. the control vehicle (inhibition): 4 h after carrageenan injection, oral
Source text: The anti-inflammatory activity of the α-aminoamide compounds of formula (I) have proven effective in a rat model of inflammation induced by carrageenan injection.
The potential anti-inflammatory effect of (S)-(+)-2-[4-(2-fluorobenzyloxy)-benzylamino]-propanamide (“compound A”) was investigated in the rat model of inflammatory acute pain induced by subplantar injection of carrageenan. Itraplantar injection of carrageenan elicit a time-dependent increase in paw volume.
Male Wistar rats of 175-200 grams were used. The left hind paw was injected with 100 μl of carrageenan (2% w/v in saline). Compound A (30 mg/kg), indomethacin (5 mg/kg), or control vehicle (such as distilled water) were orally administered 1 h before carrageenan injection. The paw volume was measured with a plethysmometer (Ugo Basile) immediately before (basal) and 1, 2, 3, 4 and 5 h after the carrageenan injection.

[2] = tested on: KCl-evoked SP release from spinal cord superfused synaptosomes; assay: Substance P (SP) release from rat spinal cord synaptosomes; assay type: cell-based; conditions: KCl (35 mM) evoked, RIA, concentrations 0.1 to 30 μM, read-out: IC50 for reducing evoked SP release
Protocol: Male adult Sprague-Dawley rats were used. Following decapitation, the spinal cord was removed and homogenized in sucrose buffer 0.32 M pH 7.4. Samples were centrifuged at 12000 g for 20 minutes and the synaptosomal fraction was resuspended in physiological buffer. SP release from spinal cord superfused synaptosomes was induced by KCl (35 mM) and measured by RIA method (see Lee C M. et al. (1980) “The development and application of a novel N-terminal directed substance P antiserum”, Life Science 27 (7):535-543).

[3] = tested on: inflamed joint induced by carrageenan; conditions: cited from earlier work

Row | SMILES | volume of paw edema (mean Δml ± s.e. vs basal paw volume) [1] | reduction of edema vs. the control vehicle (inhibition) [1] | paw edema formation (in words) ([1]; Compound A 30 mg/kg oral, 1-5 h after carrageenan) | IC50 [2] | mechanical hyperalgesia (in words) [3] | swelling and stiffness of the inflamed joint (in words) [3]
1 | C[C@H](NCc1ccc(OCc2ccccc2F)cc1)C(N)=O [Compound A, (S)-(+)-2-[4-(2-fluorobenzyloxy)-benzylamino]-propanamide] | 0.19 ± 0.03 mL | 40% | prevented paw edema formation at all time points considered | 2.12 µM | – | –
2 | COc1ccc2c(c1)c(CC(=O)O)c(C)n2C(=O)c1ccc(Cl)cc1 [Indomethacin, indomethacin] | 0.29 ± 0.04 mL | about 50% | – | – | – | –
3 | C[C@@H](CN1CC[C@@]2(C)c3cccc(O)c3C[C@@H]1C2(C)C)OCc1ccccc1 [crobenetine] | – | – | – | – | able to reverse the mechanical hyperalgesia | without any effect
4 | Cc1cccc(C)c1OCC(C)N (stereo not shown) [mexeletine] | – | – | – | – | able to reverse the mechanical hyperalgesia | without any effect
